Tests used:
[1] = system: male and female mice of Swiss strain; experiment: Acute toxicity after single oral administration; type: in vivo; details: for Deaths / toxic symptoms: single dose 10 g/kg
Text: (§1) Male and female mice of Swiss strain weighing from 22 to 25 g of body weight were free of pathogen specific organisms (EOPS), stemming from breeding CERJ (53860 LE GENEST (France) and acclimated for at least 8 days in the animalry of the firm.
(§2) Except where stipulated to the contrary, in the tables giving the results, 10 animals of the same sex for each dose were housed in cages of MAKROLON (Safi) of 40 cm by 25 cm filled with shaving of wood. Standard feeding for rats and mice, tablets UAR and tap water ad libitum.
(§3) The compounds were administered without previous fasting either orally (gastric tubing using a metallic oesophageous sonde) at a rate of 0.5 ml or 1 ml per 20 g of body weight of an aqueous suspension of the test compound in a 3% solution of arabic gum, or intraperitoneally at a rate of 0.5 ml or 1 ml per 20 g of body weight of the test compound suspended in an isotonic saline solution containing 3% of arabic gum.
(§4) For 6 days after the single administration and then every day for 15 days.
(§5) When necessary, the mean lethal doses (LD 50) were calculated by the method of Behrens and Karber (BK) and Miller and Tainter (MT). The latter allowing to supply with, for the threshold of probability P=0.05 a limit of confidence for the LD 50. Further calculated were the LDo i.e. DMT=maximal doses always tolerated and the LD100 i.e. DMM=minimal doses always lethal.
The compound was administered in a single dose to batches of 10 male or female mice weighing […] at a rate of 1 ml per 20 g of body weight.

[2] = system: male and female mice of Swiss strain; experiment: Acute toxicity after single intraperitoneal administration; type: in vivo; details: IP
Text: as §1, §2, §3, §4, §5

[3] = Anti-inflammatory / analgesic activity; type: in vivo; details: doses lower than previously disclosed
Procedure: The said 2-[(3,4-dimethoxy-benzoyl)-methyl]-2-hydroxy-1,3-dioxo-Indane has been used in the French patent at a dose of 250 mg/kg to induce an anti-inflammatory threshold effect. Consequently, the dosology disclosed in the French patent for the use in human therapy shall range from 400 to 1200 mg daily.

[4] = system: atheroma / hyperlipidaemia in Wistar rats on atheromatogenous regimen; experiment: Overall hypolipaemiant and anti-atheromatous classification (summarized scores); type: in vivo, rat; details: 100 mg/kg
Text: (§6) The method utilized for the test was that, slightly altered of Aubert D. Feraud J. C., Lacaze B., Pepino., Ponak E. et Podesta M. as described in Atherosclerosis, Vol. 20 (1974), p. 263-280 (Experimental Atherogenesis in the Wistar Rat).
(§7) Female rats of Wistar strain, free of specific pathogenic germs (EOPS) stemming from the breeding EVIC-CEBA
(§8) Diet: standard tablets UAE AO 3 enriched in cholesterol (0.5%) and in cholic acid (0.5).
(§9) Diet of the animals: the animals were given the atheromatogenous regimen then while maintaining the same regimen, they were given for 4 days 250,000 IU/kg of vitamin D2 dissolved in olive oil (Sterogyl 15H). The compounds to be tested were given thereafter for 4 weeks immediately after the termination of the atheromatogenous regimen.

[5] = system: atheromatous deposits of the aorta, Wistar rats; experiment: Macroscopic examination of aorta atheroma in rats on atheromatogenous diet; type: in vivo, rat
Text: as §6, §8
After the studies, all the animals were sacrificed by subtotal puncture of the blood in the abdominal aorta after anesthesia by intravenous sodium Pentobarbital. The hearts, livers, aortas on which the score of atheroma was determined were taken. For this purpose, the aortas were longitudinally cut, then spread to allow a whole insight of the endothelial coating from the aortic valves until the branching of the coeliac stem (lower portion of the thoracic aorta).
Aorta was from an anatomic point of view divided into two parts:
Zone 1: aortic valves-first intercostal arters
Zone 2: first intercostal arters and branching of the coeliac stem
The intensity of the atheromatous deposits was determined according to the following scores:
Score 1: Discrete (<1 mm) and few deposit
Score 2: Numerous and discrete deposits
Score 3: Numerous and marked deposits (<1 mm)
Score 4: Very marked deposits or very numerous deposits but letting some uninfiltrated areas
Score 5: Deposits on the whole epithelium
Two parameters were considered:
the intensity of the observed damages determined according to the previously-given scores.

[6] = system: hyperlipidaemia / atheroma in Wistar rats on atheromatogenous regimen; experiment: Biochemical testings in rats on atheromatogenous (cholesterol-rich) diet, including atheroma risk ratios; type: in vivo, rat
Text: as §6, §7
Mean body weight: 160-180 g at the start of the test
as §8
15 animals per each batch and by cage in MACROLON (Safi) of 59 cm×38 cm, 5 cm filled with a litter of shavings of wood.
as §9
At the end of these studies the following tests were performed on all surviving animals.
Esterified blood cholesterol
Cholesterol in LDL (estimate)
The total score for each product was obtained by adding each individual scores and allowed the following classification
The protection against the atheromatogenous risk was evaluated using the following ratios: […]

[7] = system: female rats of Wistar strain; experiment: Tolerance, mortality and body weight in the rat atheroma study; details: 100 mg/kg
Text: as §7, §9
The behavior and the changes in weight of the animals were surveyed every day as well as by weekly weighing.

[8] = French patent 2,382,424; cited from earlier work
[9] = same doses, cholesterol-rich diet

With `COc1ccc(C(=O)CC2(O)C(=O)c3ccccc3C2=O)cc1OC` [Compound of the invention, 2-[(3,4-dimethoxy-benzoyl)-methyl]-2-hydroxy-1,3-dioxo Indane] as the compound, how does the Toxicity ([1]; general statement) read?
Its Toxicity is “very low toxicity”.

What about the LD100 ([1]; oral, male or female mice) of the same compound?
Its LD100 is > 10000 mg/kg.

And the LDo ([1]; oral, male or female mice)?
The LDo was 10000 mg/kg.

And the “Deaths / toxic symptoms” value ([1]; oral, male or female mice)?
Its value is “no toxicity even at a dose of 10 g/kg”.

What about the “Deaths / toxic symptoms” value ([1]; oral, male or female mice, listed as test compound) of the same compound?
Its value is “no deaths nor toxic symptoms appeared”.

What about the “Toxicity in comparison with Clofibrate” value ([1]; single administration, orally or parenterally) of the same compound?
Its value is “less toxic than Clofibrate”.

What about the Symptoms after injection [2] of the same compound?
Its Symptoms after injection is “crawling after the injection then a protracted prostation took place with piloerection and bradypnea cyanosis”.

And the “Mortality in 10 mice” value ([2]; 2000 mg/kg, females)?
Its value is 0.

What about the “Mortality in 10 mice” value ([2]; 2000 mg/kg, males) of the same compound?
The value was 0.

What about the “Mortality in 10 mice” value ([2]; 2500 mg/kg, females) of the same compound?
Its value is 1.

What about the “Mortality in 10 mice” value ([2]; 2500 mg/kg, males) of the same compound?
Its value is 1.

And the “Mortality in 10 mice” value ([2]; 3000 mg/kg, females)?
Its value is 6.

And the “Mortality in 10 mice” value ([2]; 3000 mg/kg, males)?
Its value is 3.

And the Late mortalities ([2]; 3 to 4 g/kg, after 5 to 7 days)?
Its Late mortalities is “generally 1 death per dose for each sex”.

What about the “Mortality in 10 mice” value ([2]; 3500 mg/kg, females) of the same compound?
The value was 8.

And the “Mortality in 10 mice” value ([2]; 3500 mg/kg, males)?
The value was 5.

And the “Mortality in 10 mice” value ([2]; 4000 mg/kg, females)?
The value was 10.

And the “Mortality in 10 mice” value ([2]; 4000 mg/kg, males)?
Its value is 8.

And the “Mortality in 10 mice” value ([2]; 4500 mg/kg, females)?
The value was 10.

What about the “Mortality in 10 mice” value ([2]; 4500 mg/kg, males) of the same compound?
The value was 10.

And the “Mortality in 10 mice” value ([2]; 5000 mg/kg, females)?
The value was 10.

And the “Mortality in 10 mice” value ([2]; 5000 mg/kg, males)?
The value was 10.

And the “LD100 (minimal dose always lethal)” value ([2]; female mice)?
The value was 4000 mg/kg.

And the “LDo (maximal dose always tolerated)” value ([2]; female mice)?
Its value is 2000 mg/kg.

And the “LD100 (minimal dose always lethal)” value ([2]; male mice)?
The value was 4500 mg/kg.

And the “LDo (maximal dose always tolerated)” value ([2]; male mice)?
The value was 2000 mg/kg.

What about the “Toxicity in comparison with Clofibrate” value ([2]; single administration) of the same compound?
Its value is “markedly less toxic than Clofibrate”.

What about the “Anti-inflammatory or analgesic properties at the antilipaemiant doses” value [3] of the same compound?
The value was “does not show anti-inflammatory or analgesic properties”.

And the “Classification of the anti-atheromatous action” value [4]?
The value was “Compound of the invention>Fenofibrate>Clofibrate”.

And the “Hypolipaemiant and anti-atheromatous activity” value [4]?
The value was “marked hypolipaemiant and anti-atheromatous activity, very close to Clofibrate (100 mg/kg) and far better than those of Fenclofibrate (100 mg/kg)”.

And the “Macroscopical examination total score” value ([5]; 100 mg/kg)?
Its value is 2.57.

And the “Damaged animals, % of decrease in comparison with Controls-Diet” value ([5]; 100 mg/kg, macroscopical)?
The value was -30.77%.

What about the “Damaged animals, percentage” value ([5]; 100 mg/kg, macroscopical) of the same compound?
The value was 69.23%.

And the “Damaged animals, score in relation to Clofibrate” value ([5]; 100 mg/kg, macroscopical)?
The value was 1.69.

What about the “Intensity of the damages, % of decrease in comparison with Controls-Diet” value ([5]; 100 mg/kg, macroscopical) of the same compound?
Its value is -22.68%.

And the “Intensity of the damages, score in relation to Clofibrate” value ([5]; 100 mg/kg, macroscopical)?
Its value is 0.88.

And the “Frequency of macroscopic damages” value ([5]; cholesterol-rich diet)?
Its value is “a lower frequency of macroscopic damages”.

What about the “Intensity of observed damages” value ([5]; cholesterol-rich diet) of the same compound?
Its value is “a lower intensity of the observed damages”.

And the “Activity on macroscopic damages vs Clofibrate” value [5, 9]?
The value was “more active when evaluating the macroscopic damages”.

What about the “Cholesterol in LDL / Cholesterol in HDL, % in comparison with Controls-Diet” value ([6]; 100 mg/kg) of the same compound?
Its value is -36.10%.

What about the “Total Blood Cholesterol / Cholesterol in HDL, % in comparison with Controls-Diet” value ([6]; 100 mg/kg) of the same compound?
The value was -33.22%.

What about the “Cholesterol in HDL, variation in comparison to controls-Diet” value ([6]; 100 mg/kg, 4 weeks) of the same compound?
Its value is -33.33%.

What about the “Esterified cholesterol, variation in comparison to controls-Diet” value ([6]; 100 mg/kg, 4 weeks) of the same compound?
The value was -57.70%.

What about the “Total Blood lipids, variation in comparison to controls-Diet” value ([6]; 100 mg/kg, 4 weeks) of the same compound?
Its value is -48.47%.

And the “Total blood cholesterol, variation in comparison to controls-Diet” value ([6]; 100 mg/kg, 4 weeks)?
Its value is -55.47%.

And the “Triglycerids, variation in comparison to controls-Diet” value ([6]; 100 mg/kg, 4 weeks)?
The value was -25.86%.

And the “Cholesterol in LDL, variation in comparison to controls-Diet” value ([6]; 100 mg/kg, 4 weeks, LDL (estimate))?
Its value is -57.41%.

And the “Atheromatous risk total score” value ([6]; 100 mg/kg, listed as Compound according to this invention)?
The value was 0.90.

And the “Atheromatous risk total score” value ([6]; 100 mg/kg, listed as Compound of this invention)?
The value was 0.90.

What about the “Activity on the biochemical level vs Clofibrate” value [6, 9] of the same compound?
Its value is “as active as Clofibrate on the biochemical level”.

And the “Mortality compared with batch No. 2 (2/15)” value ([7]; 4 weeks, atheromatogenous regimen)?
Its value is “did not increase it”.

And the “Tolerance compared with Clofibrate” value ([7]; rat, in vivo)?
Its value is “better tolerated”.

And the “Dose inducing an anti-inflammatory threshold effect” value [8]?
Its value is 250 mg/kg.

— patent US4816490A, “Novel therapeutic use of a derivative of indane dione and the pharmaceutical compositions intended for this use” (priority 1987, dated 1989)
